Laboratory results taken from patent US20240239861A1, “GLUCAGON-RECEPTOR SELECTIVE POLYPEPTIDES AND METHODS OF USE THEREOF” (i2O Therapeutics, Inc., priority 2016, published 2024).
Where a SMILES comes first, the peptide text is derived from it. [ ]: non-standard residue; d: D form. Aib = CC(C)(N)C(=O)O

Biological target: human GLP-1R (Homo sapiens, UniProt P43220)
Assay: Peptide-receptor mediated cAMP accumulation (LANCE Ultra cAMP) in CHO-K1 cells transfected with human GLP-1R
Type: cell-based
Conditions: hGLP1 pEC50 (cAMP mean (n = 3): 11 point curve starting at 1 nM, Table 3)

Sequence of human GLP-1R (P43220 24-463): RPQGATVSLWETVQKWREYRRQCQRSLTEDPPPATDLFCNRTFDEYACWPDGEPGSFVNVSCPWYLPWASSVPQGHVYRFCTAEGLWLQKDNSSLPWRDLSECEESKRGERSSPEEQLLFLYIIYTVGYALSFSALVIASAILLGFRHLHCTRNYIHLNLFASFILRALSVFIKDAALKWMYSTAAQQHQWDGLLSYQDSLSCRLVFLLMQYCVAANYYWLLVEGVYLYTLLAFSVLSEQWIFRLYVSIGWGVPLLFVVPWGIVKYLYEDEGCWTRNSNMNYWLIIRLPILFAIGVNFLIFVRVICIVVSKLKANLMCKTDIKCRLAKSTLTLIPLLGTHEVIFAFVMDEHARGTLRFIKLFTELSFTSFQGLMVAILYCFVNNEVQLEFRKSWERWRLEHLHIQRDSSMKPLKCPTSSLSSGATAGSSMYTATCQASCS

SMILES | EC50 [nM]
CC(C)C[C@H](NC(=O)[C@H](Cc1c[nH]c2ccccc12)NC(=O)[C@H](CCCCN)NC(=O)[C@H](CO)NC(=O)[C@H](Cc1ccc(O)cc1)NC(=O)[C@H](CC(=O)O)NC(=O)[C@H](CO)NC(=O)[C@@H](NC(=O)[C@H](Cc1ccccc1)NC(=O)[C@@H](NC(=O)CNC(=O)[C@H](Cc1c[nH]cn1)NC(=O)[C@H](CO)NC(=O)[C@@H](N)Cc1ccc(O)cc1)[C@@H](C)O)[C@@H](C)O)C(=O)N[C@@H](CC(=O)O)C(=O)N[C@@H](CO)C(=O)N[C@@H](C)C(=O)N[C@@H](CCCNC(=N)N)C(=O)N[C@@H](C)C(=O)N[C@@H](CCC(N)=O)C(=O)N[C@@H](CCC(=O)O)C(=O)N[C@@H](Cc1ccccc1)C(=O)N[C@H](C(=O)N[C@@H](CCCCN)C(=O)N[C@@H](Cc1c[nH]c2ccccc12)C(=O)N[C@@H](CC(C)C)C(=O)N[C@@H](CCC(=O)O)C(=O)N[C@@H](CC(=O)O)C(=O)N[C@@H](CCC(=O)O)C(=O)N1CCC[C@H]1C(=O)N[C@@H](CO)C(=O)N[C@@H](CO)C(=O)NCC(=O)N[C@@H](C)C(=O)N1CCC[C@H]1C(=O)N1CCC[C@H]1C(=O)N1CCC[C@H]1C(=O)N[C@@H](CO)C(=O)O)C(C)C [Compound A38] (H-YSHGTFTSDYSKWLDSARAQEFVKWLEDEPSSGAPPPS-OH; N-terminus assumed) | > 1
CC[C@H](C)[C@H](NC(=O)[C@@H]1CCCN1C(=O)[C@@H]1CCCN1C(=O)[C@H](CCCCN)NC(=O)[C@H](CC(N)=O)NC(=O)[C@H](CCCNC(=N)N)NC(=O)[C@H](CCCCN)NC(=O)[C@H](CCC(=O)O)NC(=O)[C@H](CC(=O)O)NC(=O)[C@H](CCC(=O)O)NC(=O)[C@H](CC(C)C)NC(=O)[C@H](Cc1c[nH]c2ccccc12)NC(=O)C(C)(C)NC(=O)[C@@H](NC(=O)[C@H](Cc1ccccc1)NC(=O)[C@H](CCC(=O)O)NC(=O)[C@H](CCC(N)=O)NC(=O)[C@H](C)NC(=O)[C@H](CCCNC(=N)N)NC(=O)[C@H](CCCCN)NC(=O)C(C)(C)NC(=O)[C@H](CC(=O)O)NC(=O)[C@H](CC(C)C)NC(=O)[C@H](Cc1ccc(O)cc1)NC(=O)[C@H](CCCCN)NC(=O)[C@H](CO)NC(=O)[C@H](Cc1ccc(O)cc1)NC(=O)[C@H](CC(=O)O)NC(=O)[C@H](CO)NC(=O)[C@@H](NC(=O)[C@H](Cc1ccccc1)NC(=O)[C@@H](NC(=O)CNC(=O)[C@H](Cc1c[nH]cn1)NC(=O)[C@H](CO)NC(=O)[C@@H](N)Cc1ccc(O)cc1)[C@@H](C)O)[C@@H](C)O)C(C)C)C(=O)N[C@@H](C)C(=O)O [Compound A46] (H-YSHGTFTSDYSKYLD[Aib]KRAQEFV[Aib]WLEDEKRNKPPIA-OH; N-terminus assumed) | > 1
CC(C)C[C@H](NC(=O)[C@H](Cc1ccc(O)cc1)NC(=O)[C@H](CCCCN)NC(=O)[C@H](CO)NC(=O)[C@H](Cc1ccc(O)cc1)NC(=O)[C@H](CC(=O)O)NC(=O)[C@H](CO)NC(=O)[C@@H](NC(=O)[C@H](Cc1ccccc1)NC(=O)[C@@H](NC(=O)CNC(=O)[C@H](Cc1c[nH]cn1)NC(=O)[C@H](CO)NC(=O)[C@@H](N)Cc1ccc(O)cc1)[C@@H](C)O)[C@@H](C)O)C(=O)N[C@@H](CC(=O)O)C(=O)NC(C)(C)C(=O)N[C@@H](CCCCN)C(=O)N[C@@H](CCCNC(=N)N)C(=O)N[C@@H](C)C(=O)N[C@@H](CCC(N)=O)C(=O)N[C@@H](CCC(=O)O)C(=O)N[C@@H](Cc1ccccc1)C(=O)N[C@H](C(=O)NC(C)(C)C(=O)N[C@@H](Cc1c[nH]c2ccccc12)C(=O)N[C@@H](CC(C)C)C(=O)N[C@@H](CCC(=O)O)C(=O)N[C@@H](CC(=O)O)C(=O)N[C@@H](CCC(=O)O)C(=O)N1CCC[C@H]1C(=O)N[C@@H](CCCNC(=N)N)C(=O)N[C@@H](CC(N)=O)C(=O)N[C@@H](CCCCN)C(=O)N[C@@H](CC(N)=O)C(=O)N[C@@H](CC(N)=O)C(=O)N1CCC[C@H]1C(=O)N1CCC[C@H]1C(=O)N[C@@H](CO)C(=O)O)C(C)C [Compound A49] (H-YSHGTFTSDYSKYLD[Aib]KRAQEFV[Aib]WLEDEPRNKNNPPS-OH; N-terminus assumed) | > 1
CC(C)C[C@H](NC(=O)[C@H](CC(=O)O)NC(=O)[C@H](CC(C)C)NC(=O)[C@H](Cc1ccc(O)cc1)NC(=O)[C@H](CCCCN)NC(=O)[C@H](CO)NC(=O)[C@H](Cc1ccc(O)cc1)NC(=O)[C@H](CC(=O)O)NC(=O)[C@H](CO)NC(=O)[C@@H](NC(=O)[C@H](Cc1ccccc1)NC(=O)[C@@H](NC(=O)CNC(=O)[C@H](Cc1c[nH]cn1)NC(=O)[C@H](CO)NC(=O)[C@@H](N)Cc1ccc(O)cc1)[C@@H](C)O)[C@@H](C)O)C(=O)N[C@@H](CCCCN)C(=O)N[C@@H](CCCNC(=N)N)C(=O)N[C@@H](C)C(=O)N[C@@H](CCC(N)=O)C(=O)N[C@@H](CCC(=O)O)C(=O)N[C@@H](Cc1ccccc1)C(=O)N[C@H](C(=O)NC(C)(C)C(=O)N[C@@H](Cc1c[nH]c2ccccc12)C(=O)N[C@@H](CC(C)C)C(=O)N[C@@H](CCC(=O)O)C(=O)N[C@@H](CC(=O)O)C(=O)N[C@@H](CCC(=O)O)C(=O)N1CCC[C@H]1C(=O)N[C@@H](CO)C(=O)N[C@@H](CO)C(=O)NCC(=O)N[C@@H](C)C(=O)N1CCC[C@H]1C(=O)N1CCC[C@H]1C(=O)N1CCC[C@H]1C(=O)N[C@@H](CO)C(=O)O)C(C)C [Compound A51] (H-YSHGTFTSDYSKYLDLKRAQEFV[Aib]WLEDEPSSGAPPPS-OH; N-terminus assumed) | > 1
CC(C)C[C@H](NC(=O)[C@H](Cc1ccc(O)cc1)NC(=O)[C@H](CCCCN)NC(=O)[C@H](CO)NC(=O)[C@H](Cc1ccc(O)cc1)NC(=O)[C@H](CC(=O)O)NC(=O)[C@H](CO)NC(=O)[C@@H](NC(=O)[C@H](Cc1ccccc1)NC(=O)[C@@H](NC(=O)CNC(=O)[C@H](Cc1c[nH]cn1)NC(=O)[C@H](CO)NC(=O)[C@@H](N)Cc1ccc(O)cc1)[C@@H](C)O)[C@@H](C)O)C(=O)N[C@@H](CC(=O)O)C(=O)NC(C)(C)C(=O)N[C@@H](CCCCN)C(=O)N[C@@H](CCCNC(=N)N)C(=O)N[C@@H](C)C(=O)N[C@@H](CCC(N)=O)C(=O)N[C@@H](CCC(=O)O)C(=O)N[C@@H](Cc1ccccc1)C(=O)N[C@H](C(=O)NC(C)(C)C(=O)N[C@@H](Cc1c[nH]c2ccccc12)C(=O)N[C@@H](CC(C)C)C(=O)N[C@@H](CCC(=O)O)C(=O)N[C@@H](CC(=O)O)C(=O)N[C@@H](CCC(=O)O)C(=O)N1CCC[C@H]1C(=O)N[C@@H](CO)C(=O)N[C@@H](CO)C(=O)N[C@@H](CCCCN)C(=O)N[C@@H](CO)C(=O)N1CCC[C@H]1C(=O)N1CCC[C@H]1C(=O)N1CCC[C@H]1C(=O)N[C@@H](CO)C(=O)O)C(C)C [Compound A55] (H-YSHGTFTSDYSKYLD[Aib]KRAQEFV[Aib]WLEDEPSSKSPPPS-OH; N-terminus assumed) | > 1
CC(C)C[C@H](NC(=O)[C@H](Cc1ccc(O)cc1)NC(=O)[C@H](CCCCN)NC(=O)[C@H](CO)NC(=O)[C@H](Cc1ccc(O)cc1)NC(=O)[C@H](CC(=O)O)NC(=O)[C@H](CO)NC(=O)[C@@H](NC(=O)[C@H](Cc1ccccc1)NC(=O)[C@@H](NC(=O)CNC(=O)[C@H](Cc1c[nH]cn1)NC(=O)[C@H](CO)NC(=O)[C@@H](N)Cc1ccc(O)cc1)[C@@H](C)O)[C@@H](C)O)C(=O)N[C@@H](CC(=O)O)C(=O)NC(C)(C)C(=O)N[C@@H](CCCCN)C(=O)N[C@@H](CCCNC(=N)N)C(=O)N[C@@H](C)C(=O)N[C@@H](CCC(N)=O)C(=O)N[C@@H](CCC(=O)O)C(=O)N[C@@H](Cc1ccccc1)C(=O)N[C@H](C(=O)NC(C)(C)C(=O)N[C@@H](Cc1c[nH]c2ccccc12)C(=O)N[C@@H](CC(C)C)C(=O)N[C@@H](CCC(=O)O)C(=O)N[C@@H](CC(=O)O)C(=O)N[C@@H](CCC(=O)O)C(=O)N1CCC[C@H]1C(=O)N[C@@H](CO)C(=O)N[C@@H](CO)C(=O)N[C@@H](CCCCN)C(=O)N[C@@H](CCC(N)=O)C(=O)N1CCC[C@H]1C(=O)N1CCC[C@H]1C(=O)N1CCC[C@H]1C(=O)N[C@@H](CO)C(=O)O)C(C)C [Compound A59] (H-YSHGTFTSDYSKYLD[Aib]KRAQEFV[Aib]WLEDEPSSKQPPPS-OH; N-terminus assumed) | > 1
CC(C)C[C@H](NC(=O)[C@H](Cc1ccc(O)cc1)NC(=O)[C@H](CCCCN)NC(=O)[C@H](CO)NC(=O)[C@H](Cc1ccc(O)cc1)NC(=O)[C@H](CC(=O)O)NC(=O)[C@H](CO)NC(=O)[C@@H](NC(=O)[C@H](Cc1ccccc1)NC(=O)[C@@H](NC(=O)CNC(=O)[C@H](Cc1c[nH]cn1)NC(=O)[C@H](CO)NC(=O)[C@@H](N)Cc1ccc(O)cc1)[C@@H](C)O)[C@@H](C)O)C(=O)N[C@@H](CC(=O)O)C(=O)NC(C)(C)C(=O)N[C@@H](CCCCN)C(=O)N[C@@H](CCCNC(=N)N)C(=O)N[C@@H](C)C(=O)N[C@@H](CCC(N)=O)C(=O)N[C@@H](CCC(=O)O)C(=O)N[C@@H](Cc1ccccc1)C(=O)N[C@H](C(=O)NC(C)(C)C(=O)N[C@@H](Cc1c[nH]c2ccccc12)C(=O)N[C@@H](CC(C)C)C(=O)N[C@@H](CCC(=O)O)C(=O)N[C@@H](CC(=O)O)C(=O)N[C@@H](CCC(=O)O)C(=O)N1CCC[C@H]1C(=O)N[C@@H](CCCCN)C(=O)N[C@@H](CO)C(=O)N[C@@H](CCCCN)C(=O)N[C@@H](CCC(=O)O)C(=O)N1CCC[C@H]1C(=O)N1CCC[C@H]1C(=O)N1CCC[C@H]1C(=O)N[C@@H](CO)C(N)=O)C(C)C [Compound A65] (H-YSHGTFTSDYSKYLD[Aib]KRAQEFV[Aib]WLEDEPKSKEPPPS-NH2; N-terminus assumed) | > 1
CC(C)C[C@H](NC(=O)[C@H](Cc1ccc(O)cc1)NC(=O)[C@H](CCCCN)NC(=O)[C@H](CO)NC(=O)[C@H](Cc1ccc(O)cc1)NC(=O)[C@H](CC(=O)O)NC(=O)[C@H](CO)NC(=O)[C@@H](NC(=O)[C@H](Cc1ccccc1)NC(=O)[C@@H](NC(=O)CNC(=O)[C@H](Cc1c[nH]cn1)NC(=O)[C@H](CO)NC(=O)[C@@H](N)Cc1ccc(O)cc1)[C@@H](C)O)[C@@H](C)O)C(=O)N[C@@H](CC(=O)O)C(=O)NC(C)(C)C(=O)N[C@@H](CCCCN)C(=O)N[C@@H](CCCNC(=N)N)C(=O)N[C@@H](C)C(=O)N[C@@H](CCC(N)=O)C(=O)N[C@@H](CCC(=O)O)C(=O)N[C@@H](Cc1ccccc1)C(=O)N[C@H](C(=O)NC(C)(C)C(=O)N[C@@H](Cc1c[nH]c2ccccc12)C(=O)N[C@@H](CC(C)C)C(=O)N[C@@H](CCC(=O)O)C(=O)N[C@@H](CC(=O)O)C(=O)N[C@@H](CCC(=O)O)C(=O)N1CCC[C@H]1C(=O)N[C@@H](CCCCN)C(=O)N[C@@H](CO)C(=O)N[C@@H](CCCCN)C(=O)N[C@@H](CO)C(=O)N1CCC[C@H]1C(=O)N1CCC[C@H]1C(=O)N1CCC[C@H]1C(=O)N[C@@H](CO)C(N)=O)C(C)C [Compound A66] (H-YSHGTFTSDYSKYLD[Aib]KRAQEFV[Aib]WLEDEPKSKSPPPS-NH2; N-terminus assumed) | > 1
